Laboratory results reported in PMC11988800, “A Comprehensive In Vitro and In Silico Approach for Targeting 4-Hydroxyphenyl Pyruvate Dioxygenase: Towards New Therapeutics for Alkaptonuria” (International Journal of Molecular Sciences, 2025).
Read-outs that look alike come from different tables or passages of the source.

Experiments:
human 4-HPPD [1] = target: T1, human 4-HPPD (Homo sapiens, UniProt P32754); test: Inhibition assay (IC50/IC90): ochronotic pigment formation in recombinant E. coli expressing human 4-HPPD
T1 sequence (P32754 whole entry): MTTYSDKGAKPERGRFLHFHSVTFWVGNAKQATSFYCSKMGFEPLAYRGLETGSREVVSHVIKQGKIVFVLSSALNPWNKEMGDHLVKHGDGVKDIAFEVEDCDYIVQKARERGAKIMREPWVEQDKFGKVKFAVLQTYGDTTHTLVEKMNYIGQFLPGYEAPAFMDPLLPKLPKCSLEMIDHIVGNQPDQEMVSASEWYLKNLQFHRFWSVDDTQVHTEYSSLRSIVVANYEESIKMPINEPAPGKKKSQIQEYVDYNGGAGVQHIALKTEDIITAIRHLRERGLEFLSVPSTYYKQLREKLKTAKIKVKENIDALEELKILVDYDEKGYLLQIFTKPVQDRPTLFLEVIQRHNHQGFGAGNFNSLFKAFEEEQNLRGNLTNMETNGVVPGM
Experimental: To do so, an inhibition assay was set up to test the compounds at different concentrations. The bacterial suspension was incubated in a medium containing 1 mM IPTG, 75 µM Tyr, and the tested inhibitor, monitoring the formation of the ochronotic pigment at 405 nm after 24 h.
The pre-inoculum was prepared in LB medium (Lysogeny Broth) supplemented with glucose (1% final concentration) and kanamycin sulfate (50 µg/mL final concentration). […] The pre-inoculum was incubated overnight at 37 °C under agitation. After measuring the OD600 of the pre-inoculum using LB medium as a blank, it was diluted to a final optical density of 0.1 in LB medium supplemented with kanamycin (LBK). The cell culture was shaken at 37 °C, and the OD600 was measured every 45 min until reaching the mid-log phase (0.6–0.8). Protein expression was then induced by adding isopropyl-β-D-thiogalactopyranoside (IPTG) [26, 27, 28].
Briefly, serial dilutions of the inhibitors were prepared in 96-deep well standard plates, starting from a stock solution of 10^−2 M, and then 600 µL of bacterial suspension (see Section 4.1.1) supplemented with 1 mM IPTG and 75 µg/mL Tyr were added into each well.
In parallel, the control tests were set up as follows: • - Blank: culture medium without cell suspension. • - Negative control: cell suspension without IPTG and Tyr. • - Not-Inhibited control: cell suspension supplemented with 1 mM IPTG and 75 µg/mL Tyr.
The plate was incubated on a microplate shaker at 800 rpm for 24 h.
The plates were centrifuged at 3200× g for 10 min at 4 °C. Subsequently, 150 μL of supernatant (pigmented medium) was transferred to a 96-well standard plate, and the absorbance was measured at 405 nm using a multimode plate reader (EnVision 2105, PerkinElmer Inc., Waltham, MA, USA). GraphPad Prism 8 was used to perform a nonlinear regression analysis (Log[Inhibitor] vs. response—Variable slope (four parameters)) and to obtain the inhibition curve of the compounds.

human 4-HPPD [2] = target: T1, human 4-HPPD; test: Residence time evaluation by optimized jump dilution method in recombinant E. coli expressing human 4-HPPD
Experimental: (§1) 4-HPPD was initially incubated with each compound at saturating concentrations, and the exhaust medium (containing the inhibitor) was removed and replaced with fresh medium without the inhibitor, while the precursor (tyrosine) was added to the substrate. Enzyme activity was monitored by measuring the formation of ochronotic pigment consequent to the formation of HGA. Each inhibitor was analyzed in duplicate, and the analyses were repeated at least three times. In each experiment, control tests were set up as follows: a blank (control without induction), a control without inhibition, and a control with inhibition.
(§2) An optimized version of the jump dilution method was employed to evaluate the residence time of the novel candidate 4-HPPD inhibitors. […] This approach allowed precise tracking of reaction kinetics with high temporal resolution. After determining the IC50 and IC90 values for each tested compound, the enzyme was incubated with the inhibitors at concentrations corresponding to IC90. The exhaust medium containing the inhibitor was subsequently replaced with a fresh and inhibitor-free medium supplemented with tyrosine, the substrate precursor. The recovery of enzymatic activity was monitored over time using spectrophotometric analysis. This analytical approach provided precise measurements of the residence time for each inhibitor.
(§3) Each test was performed in duplicate, and the experiments were replicated at least three times. The tubes were half-capped and stirred at room temperature overnight.
(§4) The tubes were centrifuged at 2500× g for 10 min at 20 °C. The supernatant (exhaust medium) was discarded, while the pellet was resuspended in 7 mL of fresh LBK medium.
(§5) The tubes were incubated at 37 °C with stirring after taking the first sample (T0). Then, every 45 min for a period of 8 h, 220 μL were taken from each tube and placed in an Eppendorf tube, which was centrifuged at 13,000× g for 5 min at 4 °C. Subsequently, 200 μL of supernatant (pigmented medium) from each Eppendorf tube was transferred to a 96-well standard plate, and the absorbance at 405 nm was measured using a multimode plate reader (EnVision 2105, PerkinElmer Inc., Waltham, MA, USA).
(§6) Linear regression analysis was performed to calculate the slope values for each of the two curves corresponding to vs and v0 . These two parameters were then substituted into the equation below and reported for the nonlinear regression analysis of the data related to the tested compounds: Y=vsX+v0−vs /K (1−e^−KX) • Y: Absorbance value (HGA accumulation); • X: time (min); • vs : steady-state velocity; • v0: initial velocity; • K: koff .

human 4-HPPD [3] = target: T1, human 4-HPPD
Experimental: as §1, §2, §3, §4, §5, §6

| Compound | IC90 (human 4-HPPD [1]) | koff (human 4-HPPD [2]) | residence time (human 4-HPPD [2]) | residence time (τ) (human 4-HPPD [2]; derived from koff) | half-life (t 1/2) (human 4-HPPD [3]) | residence time (τ) (human 4-HPPD [2]) |
| --- | --- | --- | --- | --- | --- | --- |
| CS(=O)(=O)c1ccc(C(=O)C2C(=O)CCCC2=O)c([N+](=O)[O-])c1 [c1, mesotrione] | 2000 nM | 6.67e-05 s⁻¹ | 228 ± 27.6 min | higher residence time value than NTBC | – | – |
| CS(=O)(=O)c1ccc(C(=O)C2C(=O)CCCC2=O)c(Cl)c1COCC(F)(F)F [c2, tembotrione] | 500 nM | 0.000183 s⁻¹ | 94 ± 23.5 min | – | 65.111 ± 16.285 min | – |
| CS(=O)(=O)c1ccc(C(=O)C2C(=O)CCCC2=O)c(Cl)c1 [c3, Sulcotrione] | 200 nM | 0.000167 s⁻¹ | 120 ± 57.6 min | – | 83.464 ± 39.922 min | higher residence time value than NTBC |
| CC1(C)CC(=O)C(C(=O)c2ccc([N+](=O)[O-])cc2Cl)C(=O)C1 [c4, 5,5-dimethylcyclohexane-2-(2-chloro-4-nitrobenzoyl)-1,3-dione] | – | – | – | – | 89.784 ± 13.825 min | – |
| CC1(C)CC(=O)C(C(=O)c2ccc(C(F)(F)F)cc2[N+](=O)[O-])C(=O)C1 [c5, 5,5-dimethyl-2-(2-nitro-4-(trifluoromethyl)benzoyl)cyclohexane-1,3-dione] | 8000 nM | 5e-05 s⁻¹ | 352 ± 53.1 min | higher residence time value than NTBC | – | – |
| O=C1CCCC(=O)C1C(=O)c1ccc([N+](=O)[O-])cc1Cl [c6, 2-(2-chloro-4-nitrobenzoyl)1,3-cyclohexanedione] | 8000 nM | 0.000133 s⁻¹ | 119 ± 4.87 min | higher residence time value than NTBC | – | – |
| CC1(C)CC(=O)C=C(OC(=O)c2ccc(C(F)(F)F)cc2Cl)C1 [c7, 5,5-dimethyl-3-oxocyclohexenyl 2-chloro-4-(trifluoromethyl) benzoate] | – | – | – | – | 22.494 ± 2.578 min | – |
